Entries after “also recorded” stand apart in the source; their conditions may differ. Ends that are not written are not given here. Peptide text beside a SMILES is read from it. * marks the point of attachment. 5FAM = O=C1OC2(c3ccc(O)cc3Oc3cc(O)ccc32)c2ccc(C(=O)*)cc21; Cf = 5(6)-carboxyfluorescein
Assays:
E. coli DnaK [1] = target: T1, E. coli DnaK (Escherichia coli, UniProt P0A6Y8); assay: FRET quenching peptide–protein interaction assay with DnaK–BHQ10; format: binding; settings: 2 h, n = 3; for DnaK interaction / binding-curve shape, in words / Kd not determinable: pH 7.4; for Kd not determinable: DnaK–BHQ10 quenching, peptide N-terminal carboxyfluorescein, C-terminal amide
Protocol: DnaK, produced by Michael Zahn, was dialysed against modifying buffer (20 mmol l^−1 Na2HPO4, 20 mmol l^−1 KH2PO4, 5 mmol l^−1 MgCl2, 150 mmol l^−1 KCl, pH 7.4) as previously described and 2 mg ml^−1 were labelled with a 10-fold molar excess of BHQ10-NHS-ester, followed by supplementary dialysis to remove excess BHQ10.
As previously described, the fluorescein-modified peptides (50 μl, 1.3 nmol l^−1) and a serial dilution of DnaK–BHQ10 in modification buffer (50 μl, 0.8–13 000 nmol l^−1, 1 : 4 dilution series) were mixed in a black 384-well plate and incubated for 2 h. To calculate the quenching effect, a control was measured in five replicates consisting of 50 μl of peptide solution and 50 μl of modification buffer. The fluorescence intensity was recorded on a Paradigm fluorescence reader using a fluorescence intensity (fluo-rhod) detection cartridge (excitation wavelength = 485 ± 10 nm; emission wavelength = 535 ± 12.5 nm; integration time = 140 ms). The quenching effect was defined as the percentage of the fluorescence intensity of the control quenched after the addition of DnaK–BHQ10. Kd values were determined as described in the electronic supplementary material. […]
i) Peptide synthesis and modification.
The peptide sequences shown in Tabl es S1 an d S4 were selected according to their repo rted […]
(Carmel, USA), respectively. The m ature peptide sequences were based on data from closel y-related species and EST information derived from B. terrestris. Other peptides were s ynthesized b y PANATecs (Tübingen, Germ an y) . All peptides were l yoph ilized for storage, and were resuspended and diluted in double-distilled water, which was used as the zero peptide […]
metchnikowin 1 and 2 (Drosophila melanogaster) peptides were modified by the N -terminal addition of 5(6 )-carbox yfluorescein and C -terminal amidation for the quenching assa y. Bombus pascuorum h ymenoptaecin was modified b y the addition of an N-terminal p yroglutamate. The Black Hole Quencher 10 succinimidyl ester (BHQ10-NHS-ester, >75% purit y) was obtained from BioCat (H eidelber g, German y). […]

E. coli DnaK [2] = target: T1, E. coli DnaK; settings: ref [51]; cited from earlier work
[3] = system: substrate-binding domain of DnaK; settings: co-crystal structures; ref [58]; cited from earlier work
Excerpt: Normally, the characteristic sequence stretch YL/IPRP is positioned in the DnaK substrate-binding cleft, with a leucine or isoleucine residue occupying the central hydrophobic pocket. Additional hydrophobic binding sites preceding the central pocket are occupied by the conserved tyrosine residue and another, preferentially hydrophobic amino acid residue, defined as posi ...

E. coli = system: E. coli; parameters: method as in PMID 6396089; settings: following treatment with H. cecropia attacin; ref [15]; cited from earlier work
[4] = fluorescein-modified peptide 1.3 nmol l−1, DnaK–BHQ10 0.8–13 000 nmol l−1

T1 sequence (P0A6Y8 whole entry): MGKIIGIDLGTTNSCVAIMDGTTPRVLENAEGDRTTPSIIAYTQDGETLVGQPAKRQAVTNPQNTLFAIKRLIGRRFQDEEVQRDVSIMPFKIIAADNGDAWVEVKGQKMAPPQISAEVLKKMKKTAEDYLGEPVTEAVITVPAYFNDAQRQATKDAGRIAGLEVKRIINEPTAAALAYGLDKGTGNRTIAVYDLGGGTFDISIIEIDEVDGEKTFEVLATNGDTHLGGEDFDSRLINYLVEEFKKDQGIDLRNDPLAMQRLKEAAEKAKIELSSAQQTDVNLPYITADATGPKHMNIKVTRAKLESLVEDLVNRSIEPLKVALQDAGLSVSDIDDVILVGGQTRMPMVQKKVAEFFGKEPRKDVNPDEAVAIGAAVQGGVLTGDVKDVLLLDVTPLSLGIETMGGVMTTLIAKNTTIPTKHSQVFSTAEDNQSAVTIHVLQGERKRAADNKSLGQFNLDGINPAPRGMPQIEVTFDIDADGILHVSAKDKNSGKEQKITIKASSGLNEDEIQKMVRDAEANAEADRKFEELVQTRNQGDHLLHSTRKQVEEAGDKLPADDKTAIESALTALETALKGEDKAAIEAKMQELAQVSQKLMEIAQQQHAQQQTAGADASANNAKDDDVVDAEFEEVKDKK

Row | Molecule | DnaK interaction / binding-curve shape, in words (E. coli DnaK [1]; [4]) | Kd not determinable (E. coli DnaK [1]) | also measured
1 | CC[C@H](C)[C@H](NC(=O)[C@H](CCCCN)NC(=O)[C@@H]1CCCN1C(=O)[C@H](CC(N)=O)NC(=O)[C@H](Cc1ccccc1)NC(=O)[C@@H]1CCCN1C(=O)CNC(=O)[C@H](Cc1c[nH]cn1)NC(=O)CNC(=O)[C@@H]1CCCN1C(=O)[C@H](Cc1ccccc1)NC(=O)[C@H](CO)NC(=O)[C@@H]1CCCN1C(=O)[C@H](Cc1ccccc1)NC(=O)[C@@H]1CCCN1C(=O)[C@H](CCCCN)NC(=O)[C@H](CO)NC(=O)[C@H](CCC(N)=O)NC(=O)CNC(=O)[C@@H]1CCCN1C(=O)[C@H](CCCNC(=N)N)NC(=O)[C@@H]1CCCN1C(=O)[C@@H]1CCCN1C(=O)[C@H](CC(N)=O)NC(=O)[C@H](Cc1ccc(O)cc1)NC(=O)[C@@H]1CCCN1C(=O)[C@@H](NC(=O)[C@H](Cc1ccccc1)NC(=O)c1ccc2c(c1)C(=O)OC21c2ccc(O)cc2Oc2cc(O)ccc21)C(C)C)C(=O)N[C@@H](CCC(N)=O)C(=O)N[C@@H](Cc1c[nH]c2ccccc12)C(=O)N1CCC[C@H]1C(=O)N[C@@H](Cc1ccc(O)cc1)C(=O)N1CCC[C@H]1C(=O)N[C@@H](CC(C)C)C(=O)N1CCC[C@H]1C(=O)N[C@@H](CC(N)=O)C(=O)N1CCC[C@H]1C(=O)NCC(=O)N[C@@H](Cc1c[nH]cn1)C(N)=O [B. pascuorum abaecin] (5FAM-FVPYNPPRPGQSKPFPSFPGHGPFNPKIQWPYPLPNPGH-NH2) | – | – | maximum quenching effect (binding efficacy) (E. coli DnaK [1]; fluorescein-modified peptide 1.3 nmol l−1, DnaK–BHQ10 0.8–13 000 nmol l−1, buffer pH 7.4, fluorescence): 74%
2 | Cf-PQPRPPHPRL-OH [apidaecin 1b (#9–18)] | small increase in control readouts with increasing probe concentration | – | DnaK interaction of control peptide, in words (E. coli DnaK [2]): interacts minimally with DnaK
3 | Pyrrhocoricin: proline-rich DnaK-binding AMP (VDKGSYLPRPTPPRPIYNRN; ends and bridges not checked; UniProt P37362 1-20, looked up) | – | – | DnaK binding orientation [3]: can bind to DnaK in both of the above orientations
4 | cecropin B: Hyalophora cecropia cecropin B (KWKVFKKIEKMGRNIRNGIVKAGPAIAVLGEAKAL; ends and bridges not checked; UniProt P01508 27-61, looked up) | – | – | sensitivity of E. coli towards cecropin B following attacin (E. coli): enhanced
5 | drosocin: proline-rich DnaK-binding AMP (GKPRPYSPRPTSHPRPIRV; ends and bridges not checked; UniProt P36193 22-40, looked up) | – | – | DnaK binding orientation [3]: a proline residue near the C-terminus of drosocin occupies the central pocket
6 | metalnikowin I: proline-rich AMP from Palomena prasina (Cf-VDKPDYRPRPRPPNM-NH2) | do not interact significantly with bacterial DnaK | No Kd values could be determined; also recorded: not possible to assign a Kd value | –
7 | metchnikowin 1: proline-rich AMP from Drosophila melanogaster (Cf-HRHQGPIFDTRPSPFNPNQPRPGPIY-NH2) | do not interact significantly with bacterial DnaK | No Kd values could be determined; also recorded: not possible to assign a Kd value | –
8 | metchnikowin 2: proline-rich AMP from Drosophila melanogaster (Cf-HRRQGPIFDTRPSPFNPNQPRPGPIY-NH2) | do not interact significantly with bacterial DnaK | No Kd values could be determined; also recorded: not possible to assign a Kd value | –

— article PMC4426631, “Insect antimicrobial peptides show potentiating functional interactions against Gram-negative bacteria” (Proceedings of the Royal Society B: Biological Sciences, 2015)
